Consider two compounds from BindingDB's records for patent US9932341 (Incyte, 2018).

In the test the target is T1, Phosphatidylinositol 4,5-bisphosphate 3-kinase catalytic subunit delta isoform (Homo sapiens, UniProt O00329).
T1 sequence (O00329 whole entry): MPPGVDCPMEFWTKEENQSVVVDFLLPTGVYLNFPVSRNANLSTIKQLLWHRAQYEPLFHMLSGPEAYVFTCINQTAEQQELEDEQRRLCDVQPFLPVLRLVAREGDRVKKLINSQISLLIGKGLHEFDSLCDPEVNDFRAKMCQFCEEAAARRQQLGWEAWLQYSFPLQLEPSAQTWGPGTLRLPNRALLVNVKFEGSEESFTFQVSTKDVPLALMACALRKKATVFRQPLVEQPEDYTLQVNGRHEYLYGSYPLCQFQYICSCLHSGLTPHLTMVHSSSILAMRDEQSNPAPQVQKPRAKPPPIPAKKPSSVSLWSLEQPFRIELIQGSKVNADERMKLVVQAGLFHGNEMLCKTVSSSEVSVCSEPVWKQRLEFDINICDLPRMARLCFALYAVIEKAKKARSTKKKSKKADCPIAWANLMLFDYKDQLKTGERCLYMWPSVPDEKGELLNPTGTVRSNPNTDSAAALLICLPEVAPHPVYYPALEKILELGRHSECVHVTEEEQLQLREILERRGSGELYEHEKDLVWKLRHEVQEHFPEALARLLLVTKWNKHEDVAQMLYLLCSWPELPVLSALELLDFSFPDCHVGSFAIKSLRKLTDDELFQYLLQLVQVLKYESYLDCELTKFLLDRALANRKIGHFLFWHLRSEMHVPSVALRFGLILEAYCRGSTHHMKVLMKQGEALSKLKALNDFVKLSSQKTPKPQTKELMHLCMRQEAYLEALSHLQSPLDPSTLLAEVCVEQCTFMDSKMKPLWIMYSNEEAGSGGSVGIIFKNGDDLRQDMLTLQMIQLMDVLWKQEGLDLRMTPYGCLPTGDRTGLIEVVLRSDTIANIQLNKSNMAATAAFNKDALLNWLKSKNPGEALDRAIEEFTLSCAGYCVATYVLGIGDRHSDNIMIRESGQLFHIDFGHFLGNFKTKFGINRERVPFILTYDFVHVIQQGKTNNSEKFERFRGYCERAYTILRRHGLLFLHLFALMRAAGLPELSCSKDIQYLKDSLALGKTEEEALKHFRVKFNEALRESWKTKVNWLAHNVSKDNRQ
Kind of test: Scintillation Proximity Assay. The protocol: The kinase reaction was conducted in polystyrene 384-well matrix white plate from Thermo Fisher Scientific in a final volume of 25 uL. Inhibitors were first diluted serially in DMSO and added to the plate wells before the addition of other reaction components. The final concentration of DMSO in the assay was 0.5%. The PI3K assays were carried out at room temperature in 20 mM MOPS, pH 6.7, 10 mM MgCl2, 5 mM DTT and CHAPS 0.03%. Reactions were initiated by the addition of ATP, the final reaction mixture consisted of 20 uM PIP2, 20 uM ATP, 0.2 uCi [γ-33P] ATP, 4 nM PI3K . […] 25 mM EDTA, 400 uM ATP. The final concentration of SPA beads was 1.0 mg/mL. After the plate sealing, plates were shaken overnight at room temperature and centrifuged at 1800 rpm for 10 minutes, the radioactivity of the product was determined by scintillation counting on Topcount (PerkinElmer).
For orientation: Scintillation proximity formats need no separation of bound from free tracer.

pIC50: −log10 of the molar value.

For `COc1c(C(C)n2nc(C)c3c(N)ncnc32)cc(Cl)c(C)c1-c1ccc(C(=O)N(C)CCO)nc1` (configuration not stated) [US9932341, Example 24], the negative-log IC50 (pIC50) (in general, the negative decadic logarithm of the IC50, by convention in mol/L) is above 8.00.
For `COc1c(C(C)n2nc(C)c3c(N)ncnc32)cc(Cl)c(C)c1-c1cncnc1` (configuration not stated) [US9932341, Example 168], the pIC50 was above 8.00.
